Data on 25 molecules can be found in patent US9913843B2, “Protein kinase C inhibitors and uses thereof” (Rigel Pharmaceuticals, Inc., priority 2012, dated 2018).

The subject of the test is PKC mediated IL-2 production in human primary T cells. The test is described as follows: IL-2 ELISA, human primary T cell, anti CD3+CD28+ (whole cell functional assay for PKC mediated IL-2 production). The test is classed as cell-based. Put shortly: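 IL-2 in supernatants was quantified by ELISA after 24 h at 37 °C. Before stimulation with plate-coated anti-CD3 (1 μg/ml) and anti-CD28 (5 μg/ml), T cells expanded from PBMC were exposed to compound for 1 h; the counter-screen replaced antibodies with PMA 0.5 ng/ml and ionomycin 0.1 μM (final).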
(In general: In an ELISA, binding on a coated surface is turned into a signal by an enzyme label.)

[1] abbreviates: 24 h, human primary T cells stimulated with anti-CD3 + anti-CD28, IL-2 by ELISA, read-out: IC50 for blocking IL-2 production.
[2] abbreviates: human primary T cells stimulated with anti-CD3 + anti-CD28, 24 h, IL-2 by ELISA, 8 pt, read-out: IL2 ELISA, Human primary T cell, anti-CD3 + CD28, 8 pt (IC50).

Like-named read-outs stand apart in the source and are kept apart here. Bounds are passed on as bounds.

Regarding `CN(C)c1cnc(Nc2cc(-n3nnn(C)c3=O)c(C3CC3)cc2F)nc1NC[C@@H]1CCCN2CCCC[C@H]12` [Compound 87], the IC50 (in general, the concentration that inhibits the measured activity by half) runs as follows: under setting [1], less than 30 µM; under setting [2], 8.26 µM.
Turning to `Cc1nnnn1-c1cc(Nc2ncc(N(C)C)c(NC[C@@H]3CCCN4CCCC[C@H]34)n2)ccc1F` [Compound 88, N2-(4-fluoro-3-(5-methyl-1H-tetrazol-1-yl)phenyl)-N4-(((1S,9aR)-octahydro-1H-quinolizin-1-yl)methyl)-N5,N5-dimethylpyrimidine-2,4,5-triamine], the IC50 runs as follows: under setting [1], less than 30 µM; under setting [2], 12.7 µM.
Consider `Cc1nnnn1-c1ccc(F)c(Nc2ncc(N(C)C)c(NC[C@@H]3CCCN4CCCC[C@H]34)n2)c1` [Compound 89, N2-(2-fluoro-5-(5-methyl-1H-tetrazol-1-yl)phenyl)-N4-(((1S,9aR)-octahydro-1H-quinolizin-1-yl)methyl)-N5,N5-dimethylpyrimidine-2,4,5-triamine], for which the IC50 was less than 30 µM under setting [1] and 14.6 µM under setting [2].
The matching figures for `COc1ccc(Nc2ncc(N(C)C)c(NC[C@@H]3CCCN4CCCC[C@H]34)n2)cc1-n1nnnc1C` [Compound 90, N4-(((1S,9aR)-octahydro-1H-quinolizin-1-yl)methyl)-N2-(4-methoxy-3-(5-methyl-1H-tetrazol-1-yl)phenyl)-N5,N5-dimethylpyrimidine-2,4,5-triamine]: less than 30 µM and 9.82 µM.
The matching figures for `COc1cc(Nc2ncc(N(C)C)c(NC[C@@H]3CCCN4CCCC[C@H]34)n2)cc(-n2nnnc2C)c1` [Compound 91, N4-(((1S,9aR)-octahydro-1H-quinolizin-1-yl)methyl)-N2-(3-methoxy-5-(5-methyl-1H-tetrazol-1-yl)phenyl)-N5,N5-dimethylpyrimidine-2,4,5-triamine]: less than 30 µM and 7.94 µM.
The matching figures for `CN(C)c1cnc(Nc2cccc(C#N)c2)nc1NC[C@@H]1CCCN2CCCC[C@H]12` [Compound 92, 3-(4-(((1S,9aR)-octahydro-1H-quinolizin-1-yl)methylamino)-5-(dimethylamino)pyrimidin-2-ylamino)benzonitrile]: less than 30 µM and 9.46 µM.
Consider `Cc1ccc(Nc2ncc(N(C)C)c(NC[C@@H]3CCCN4CCCC[C@H]34)n2)cc1C#N` [Compound 93, 5-(4-(((1S,9aR)-octahydro-1H-quinolizin-1-yl)methylamino)-5-(dimethylamino)pyrimidin-2-ylamino)-2-methylbenzonitrile], for which the concentration for half-maximal inhibition (IC50) runs as follows: under setting [1], less than 30 µM; under setting [2], 3.92 µM.
The matching figures for `CN(C)c1cnc(Nc2ccc(C3CC3)c(C#N)c2)nc1NC[C@@H]1CCCN2CCCC[C@H]12` [Compound 94, 5-(4-(((1S,9aR)-octahydro-1H-quinolizin-1-yl)methylamino)-5-(dimethylamino)pyrimidin-2-ylamino)-2-cyclopropylbenzonitrile]: less than 30 µM and 2.57 µM.
Taken in the same sequence, the figures for `CN(C)c1cnc(Nc2cc(C#N)c(C3CC3)cc2F)nc1NC[C@@H]1CCCN2CCCC[C@H]12` [Compound 95, 5-(4-(((1S,9aR)-octahydro-1H-quinolizin-1-yl)methylamino)-5-(dimethylamino)pyrimidin-2-ylamino)-2-cyclopropyl-4-fluorobenzonitrile] were less than 30 µM and 1.74 µM.
`COc1cc(Nc2ncc(N(C)C)c(NC[C@@H]3CCCN4CCCC[C@H]34)n2)cc(OC)c1` [Compound 96, N4-(((1S,9aR)-octahydro-1H-quinolizin-1-yl)methyl)-N2-(3,5-dimethoxyphenyl)-N5,N5-dimethylpyrimidine-2,4,5-triamine]: the IC50 is less than 30 µM under setting [1] and 4.98 µM under setting [2].
The matching figures for `CN(C)c1cnc(Nc2ccc3oc(=O)[nH]c3c2)nc1NC[C@@H]1CCCN2CCCC[C@H]12` [Compound 97, 5-(4-(((1S,9aR)-octahydro-1H-quinolizin-1-yl)methylamino)-5-(dimethylamino)pyrimidin-2-ylamino)benzo[d]oxazol-2(3H)-one]: less than 30 µM and 5.41 µM.
As to `CC1(C)Oc2ccc(Nc3ncc(F)c(NC[C@@H]4CCCN5CCCC[C@H]45)n3)cc2-n2nnnc21` [Compound 98, N2-(4,4-dimethyl-4H-5-oxa-1,2,3,9b-tetraaza-cyclopenta[a]naphthalen-8-yl)-5-fluoro-N4-(((1S,9aR)-octahydro-1H-quinolizin-1-yl)methyl)-pyrimidine-2,4-diamine], the IC50 runs as follows: under setting [1], less than 30 µM; under setting [2], 0.0774 µM.
As to `Cn1nnn(-c2cc(Nc3ncc(C#N)c(NC[C@@H]4CCCN5CCCC[C@H]45)n3)c(F)cc2C2CC2)c1=O` [Compound 99, 4-(((1S,9aR)-octahydro-1H-quinolizin-1-yl)methylamino)-2-(4-cyclopropyl-2-fluoro-5-(4,5-dihydro-4-methyl-5-oxotetrazol-1-yl)phenylamino)pyrimidine-5-carbonitrile], the IC50 runs as follows: under setting [1], less than 30 µM; under setting [2], 0.0509 µM.
The matching figures for `Fc1cc(C2CC2)c(-n2cnnn2)cc1Nc1ncc(C(F)(F)F)c(NC[C@@H]2CCCN3CCCC[C@H]23)n1` [Compound 100, N2-(4-cyclopropyl-2-fluoro-5-(1H-tetrazol-1-yl)phenyl)-5-(trifluoromethyl)-N4-(((1S,9aR)-octahydro-1H-quinolizin-1-yl)methyl)pyrimidine-2,4-diamine]: less than 30 µM and 4.21 µM.
The matching figures for `Cc1ccc(Nc2ncc(C(F)(F)F)c(NC[C@@H]3CCCN4CCCC[C@H]34)n2)cc1-n1cnnn1` [Compound 101, 5-(trifluoromethyl)-N4-(((1S,9aR)-octahydro-1H-quinolizin-1-yl)methyl)-N2-(4-methyl-3-(1H-tetrazol-1-yl)phenyl)pyrimidine-2,4-diamine]: less than 30 µM and 10.7 µM.
As to `Cn1nnn(-c2cc(Nc3ncc(C(F)(F)F)c(NC[C@@H]4CCCN5CCCC[C@H]45)n3)c(F)cc2C2CC2)c1=O` [Compound 102, 1-(5-(4-(((1S,9aR)-octahydro-1H-quinolizin-1-yl)methylamino)-5-(trifluoromethyl)pyrimidin-2-ylamino)-2-cyclopropyl-4-fluorophenyl)-4-methyl-1H-tetrazol-5(4H)-one], the IC50 by setting is: under setting [1], less than 30 µM; under setting [2], 12.6 µM.
The matching figures for `Cc1nnnn1-c1cc(Nc2ncc(C(F)(F)F)c(NC[C@@H]3CCCN4CCCC[C@H]34)n2)ccc1F` [Compound 103, N2-(4-fluoro-3-(5-methyl-1H-tetrazol-1-yl)phenyl)-5-(trifluoromethyl)-N4-(((1S,9aR)-octahydro-1H-quinolizin-1-yl)methyl)pyrimidine-2,4-diamine]: less than 30 µM and 26.6 µM.
The matching figures for `Cc1nnnn1-c1ccc(F)c(Nc2ncc(C(F)(F)F)c(NC[C@@H]3CCCN4CCCC[C@H]34)n2)c1` [Compound 104, N2-(2-fluoro-5-(5-methyl-1H-tetrazol-1-yl)phenyl)-5-(trifluoromethyl)-N4-(((1S,9aR)-octahydro-1H-quinolizin-1-yl)methyl)pyrimidine-2,4-diamine]: less than 30 µM and 26.8 µM.
The matching figures for `COc1ccc(Nc2ncc(C(F)(F)F)c(NC[C@@H]3CCCN4CCCC[C@H]34)n2)cc1-n1nnnc1C` [Compound 105, 5-(trifluoromethyl)-N4-(((1S,9aR)-octahydro-1H-quinolizin-1-yl)methyl)-N2-(4-methoxy-3-(5-methyl-1H-tetrazol-1-yl)phenyl)pyrimidine-2,4-diamine]: less than 30 µM and 11.8 µM.
On to `COc1cc(Nc2ncc(C(F)(F)F)c(NC[C@@H]3CCCN4CCCC[C@H]34)n2)cc(-n2nnnc2C)c1` [Compound 106, 5-(trifluoromethyl)-N4-(((1S,9aR)-octahydro-1H-quinolizin-1-yl)methyl)-N2-(3-methoxy-5-(5-methyl-1H-tetrazol-1-yl)phenyl)pyrimidine-2,4-diamine], for which the IC50 under setting [1] is less than 30 µM and the IC50 under setting [2] was 21.5 µM.
The matching figures for `N#Cc1cccc(Nc2ncc(C(F)(F)F)c(NC[C@@H]3CCCN4CCCC[C@H]34)n2)c1` [Compound 107, 3-(4-(((1S,9aR)-octahydro-1H-quinolizin-1-yl)methylamino)-5-(trifluoromethyl)pyrimidin-2-ylamino)benzonitrile]: less than 30 µM and 17.1 µM.
Regarding `Cc1ccc(Nc2ncc(C(F)(F)F)c(NC[C@@H]3CCCN4CCCC[C@H]34)n2)cc1C#N` [Compound 108, 5-(4-(((1S,9aR)-octahydro-1H-quinolizin-1-yl)methylamino)-5-(trifluoromethyl)pyrimidin-2-ylamino)-2-methylbenzonitrile], under setting [1], the IC50 was less than 30 µM.
Turning to `N#Cc1cc(Nc2ncc(C(F)(F)F)c(NC[C@@H]3CCCN4CCCC[C@H]34)n2)ccc1C1CC1` [Compound 109, 5-(4-(((1S,9aR)-octahydro-1H-quinolizin-1-yl)methylamino)-5-(trifluoromethyl)pyrimidin-2-ylamino)-2-cyclopropylbenzonitrile], the IC50 reads like this: under setting [1], less than 30 µM; under setting [2], 6.58 µM.
Taken in the same sequence, the figures for `N#Cc1cc(Nc2ncc(C(F)(F)F)c(NC[C@@H]3CCCN4CCCC[C@H]34)n2)c(F)cc1C1CC1` [Compound 110, 5-(4-(((1S,9aR)-octahydro-1H-quinolizin-1-yl)methylamino)-5-(trifluoromethyl)pyrimidin-2-ylamino)-2-cyclopropyl-4-fluorobenzonitrile] were less than 30 µM and 10.7 µM.
For `COc1cc(Nc2ncc(C(F)(F)F)c(NC[C@@H]3CCCN4CCCC[C@H]34)n2)cc(OC)c1` [Compound 111, 5-(trifluoromethyl)-N4-(((1S,9aR)-octahydro-1H-quinolizin-1-yl)methyl)-N2-(3,5-dimethoxyphenyl)pyrimidine-2,4-diamine], the IC50 was less than 30 µM under setting [1] and 12.5 µM under setting [2].
